From ChEMBL document CHEMBL5257058, “Passive Membrane Permeability of Sizable Acyclic β-Hairpin Peptides” (ACS Med Chem Lett, 2023)
Converted amounts (≈) assume the structure as drawn. Where a SMILES comes first, the peptide text is derived from it. Bridges are numbered along the chain shown (N, C = ends).

What was measured:
[1] = Kinetic solubility of compound in phosphate buffer at pH 7.4 by UV analysis; assay type: physicochemical; conditions: read-out: Kinetic_solubility
[2] = Octanol/buffer partition coefficient, logD of the compound at pH 7.4 incubated for 24 hrs by shake flask method based UV analysis; assay type: physicochemical
[3] = Retention time of the compound by RP-HPLC analysis; assay type: physicochemical
[4] = Apparent membrane permeability of the compound in PBS buffer at pH 7.4 measured after 24 hrs by PAMPA assay; assay type: ADME
[5] = Kinetic solubility of the compound by RP-HPLC analysis

Compound | solubility kinetic [1] | logD at 24 h [2] | Retention_time [3] | Papp at 24 h [4] | Retention time [3] | kinetic solubility [5]
H-RWVVRRDYRFDMGFDYWVWE-OH | 20 µM | -1.1 | 23 min | 2.61 ×10⁻⁶ cm/s | – | –
H-RWVAREGGWFGELAFNYWVWE-OH | 260 µM | -0.5 | 21.2 min | 2.05 ×10⁻⁶ cm/s | – | –
H-RWVWRDLDIATTRDYWVWE-OH | 140 µM | 0.8 | 23.2 min | 0.2 ×10⁻⁶ cm/s | – | –
H-RWVARRDYRGDMGFDYWHWE-OH | 40 µM | 0.7 | 20.3 min | 0.07 ×10⁻⁶ cm/s | – | –
H-RWVAREGMNTDWYFDYWHWE-OH | 20 µM | 1.2 | 23.3 min | 0.42 ×10⁻⁶ cm/s | – | –
CC(=O)CC(c1ccccc1)c1c(O)c2ccccc2oc1=O (stereo not given) [WARFARIN] | – | – | – | 7.06 ×10⁻⁶ cm/s | – | –
H-RWVARRDYRGDMGFNYWVWE-OH | 60 µM | -0.8 | 20.9 min | 0.02 ×10⁻⁶ cm/s | – | –
H-RWVARAYGNYGYIDVWHWE-OH | 70 µM | -1.3 | 21.9 min | 0.38 ×10⁻⁶ cm/s | – | –
H-RWVKRRDYRGDMGFDYWVWE-OH | 1800 µM | -1.3 | 19.5 min | 0.02 ×10⁻⁶ cm/s | – | –
H-RWVVRRDYRGDMGFDYWVWE-OH | 30 µM | -0.9 | – | 0.04 ×10⁻⁶ cm/s | 20.6 min | –
H-RWVARRDYRFDMGFDYWVWE-OH | 10 µM | 0.2 | 23.1 min | 2.18 ×10⁻⁶ cm/s | – | –
H-RWVAREGMNTDGYFDYWHWE-OH | 690 µM | 0.3 | 21.1 min | 0.02 ×10⁻⁶ cm/s | – | –
H-RWVKRRDYRFDMGFDYWVWE-OH | 20 µM | -0.4 | – | 0.14 ×10⁻⁶ cm/s | – | 21900 µM
H-RWVARAYGNYWYIDVWHWE-OH | 2 µM | 0.6 | 24.1 min | 4.15 ×10⁻⁶ cm/s | – | –
H-RWVWRDYRGDMGFDWVWE-OH | 20 µM | 0.9 | 23.3 min | 0.01 ×10⁻⁶ cm/s | – | –

The remaining lines, values ahead:

solubility kinetic [1] | logD at 24 h [2] | Retention_time [3] | Papp at 24 h [4] | Retention time [3] | kinetic solubility [5] | Compound
50 µM | 0.7 | 22.6 min | 4.04 ×10⁻⁶ cm/s | – | – | H-RWVARRDYRFDMGFNYWVWE-OH
530 µM | 0.9 | 22.8 min | 0.09 ×10⁻⁶ cm/s | – | – | H-RWVWSPDSSGVAYWVWE-OH
20 µM | 0.1 | 25.2 min | 5.28 ×10⁻⁶ cm/s | – | – | H-RWVWRDYRFDMGFDWVWE-OH
20 µM | 0.6 | 21.5 min | 1.59 ×10⁻⁶ cm/s | – | – | H-RWVARRDYRGDMGFDYWVWE-OH
18000 µM | -1.9 | 18.8 min | 0.26 ×10⁻⁶ cm/s | – | – | H-RGVARRDYRGDPGFDYWHWE-OH
10 µM | -0.5 | 21.8 min | 2.55 ×10⁻⁶ cm/s | – | – | H-RWVARRDYRFDMGFDYWHWE-OH
10 µM (≈ 27.6 µg/mL) | -0.6 | 22 min | 3.71 ×10⁻⁶ cm/s | – | – | CSCC[C@@H]1NC(=O)[C@H](CC(=O)O)NC(=O)[C@H](Cc2ccccc2)NC(=O)[C@H](CCCNC(=N)N)NC(=O)[C@H](Cc2ccc(O)cc2)NC(=O)[C@H](CC(=O)O)NC(=O)[C@H](CCCNC(=N)N)NC(=O)[C@H](CCCNC(=N)N)NC(=O)[C@H](C)NC(=O)[C@@H](NC(=O)[C@H](Cc2c[nH]c3ccccc23)NC(=O)[C@@H](N)CCCNC(=N)N)CSSC[C@@H](C(=O)N[C@@H](Cc2c[nH]c3ccccc23)C(=O)N[C@@H](CCC(=O)O)C(=O)O)NC(=O)[C@H](Cc2c[nH]c3ccccc23)NC(=O)[C@H](Cc2ccc(O)cc2)NC(=O)[C@H](CC(=O)O)NC(=O)[C@H](Cc2ccccc2)NC(=O)CNC1=O (H-RWCARRDYRFDMGFDYWCWE-OH; disulfide 3-18)
